Source: patent publication US20220218725A1, “METHODS AND MATERIALS FOR TREATING CANCER” (Mayo Foundation for Medical Education and Research, priority 2019, published 2022)

How the values were obtained:
[1] = tested on: CLL primary patient samples; assay: Viability of primary patient samples, Annexin V/PI assay; type: cell-based, human; settings: TP53 deleted, 48 h, KPT-330 0.05-0.5 μM, CS 1-3 mM
From the text: (§1) Primary patient samples were obtained. The mononuclear cells were obtained from bone marrow, spleen, peripheral blood and lymph nodes as follows. Freshly obtained tissue (lymph node, spleen, bone marrow) was placed in mesh screen and using a syringe plunger, the tissue was pressed into a petri dish. Samples were then rinsed through the screen using measured amounts of RPMI until all tissue has been pressed through. […] Subsequently the mononuclear cells were isolated via centrifugation in the presence of ficoll and this step was again repeated following washing the cells with RPMI media.
(§2) To isolate peripheral blood mononuclear cells (PBMCs), freshly obtained patient blood sample of patients were centrifuged in the present of ficoll and this step was repeated twice following washing the cells with PBS. Following isolating the mononuclear cells, the viability was assessed and ascertained proper viability above 80% prior to conduct respective experiments. Non-malignant cells were confirmed not to have a malignant condition by pathology review of the tissue.

[2] = tested on: MCL primary patient samples; assay: as above; type: cell-based, human; settings: 48 h, KPT-330 0.05-0.5 μM, CS 1-3 mM
From the text: as §1, §2

[3] = tested on: MM/plasma cell leukemia primary patient samples; assay: as above; type: cell-based, human; settings: 48 h, KPT-330 0.05-0.5 μM, CS 1-3 mM
From the text: as §1, §2

[4] = tested on: MZL primary patient samples; assay: as above; type: cell-based, human; settings: 48 h, KPT-330 0.05-0.5 μM, CS 1-3 mM
From the text: as §1, §2

[5] = tested on: T-cell Lymphoblastic leukemia primary patient sample; assay: as above; type: cell-based, human; settings: Relapsed T-cell Lymphoblastic leukemia; 48 h; KPT-330 0.05-0.5 μM, CS 1-3 mM
From the text: as §1, §2

[6] = tested on: WM primary patient sample; assay: as above; type: cell-based, human; settings: 48 h, KPT-330 0.05-0.5 μM, CS 1-3 mM
From the text: as §1, §2

[7] = tested on: DLBCL primary patient samples; assay: as above; type: cell-based, human; settings: 48 h, KPT-330 0.05-0.5 μM, CS 1-3 mM
From the text: as §1, §2

[8] = tested on: Lymphoplasmacytic lymphoma primary patient sample; assay: as above; type: cell-based, human; settings: Lymphoplasmacytic lymphoma with IgG monoclonal gammopathy; 48 h; KPT-330 0.05-0.5 μM, CS 1-3 mM
From the text: as §1, §2

[9] = tested on: Peripheral T-cell lymphoma primary patient samples; assay: as above; type: cell-based, human; settings: 48 h, KPT-330 0.05-0.5 μM, CS 1-3 mM
From the text: as §1, §2

[10] = tested on: L3.6 cells; assay: Cell viability, Annexin V/PI assay; type: cell-based; settings: L3.6 (Pancreatic cancer); 48 hours; KPT-330 0.1-1.0 μM, CS 1-3 mM, single agent or combination
Method: KPT-330 purchased from Selleckchem (cat no: S7252) was dissolved in DMSO while CS (Santa Cruz, Calif.S 2016-36-6), sodium salicylate (Sigma-Aldrich, cat no: S3007), acetyl salicylate (Sigma-Aldrich, cat no: CAS 50-78-2) was diluted in PBS. […] The concentration range of KPT-330 was 0.05-1.0 μM while CS was 1-3 mM were used for ex vivo treatment and incubation time ranged from 24 hours to 72 hours.
The viability assessment for cell lines and primary patients samples were conducted with the Annexin V/PI method.

[11] = tested on: OCI-Ly1 cells; assay: Cell viability, Annexin V/PI assay (also IC50 and combination index)
Method: To assess apoptosis and cellular proliferation, all cell lines were treated with CRM 1 inhibitors (concentration ranging from 0.05-2 μM) and salicylates at concentrations ranging from (0.001-10 mM) for 48 hours before analysis was performed. DMSO was used to substitute the drug in controls.
After 48 hours incubation, cells were washed with Annexin buffer solution and stained with both propidium iodide (PI) and FITC-Annexin V (Life Technologies), and assayed on a BD Accuri flow cytometer (BD Biosciences). Apoptosis results were analyzed with BD CellQuest software. […]
Jeko-1 and OCI-Ly1 cell lines were used to assess the IC50. […] Relative IC50 was calculated as described elsewhere (see, e.g., Sebaugh et al., Pharmaceutical statistics 10:128-134 (2011)). The combination index was calculated as described elsewhere (see, e.g., Chou et al., Cancer Res 70:440-446 (2010)).

[12] = Relapsed CLL: Ibrutinib and Idalalisib resistant
[13] = Relapsed CLL: Ibrutinib resistent
[14] = Relapsed MCL resistant to Ibrutinib
[15] = Kappa light chain myeloma/plasma cell leukemia with I(11; 14), standard risk
[16] = MM/plasma cell leukemia, Relapsed with high risk cytogenetics (sample of r32)
[17] = MM/plasma cell leukemia, Relapsed with high risk cytogenetics (sample of r33)
[18] = MM/plasma cell leukemia, Relapsed with high risk cytogenetics (sample of r34)
[19] = MM/plasma cell leukemia, Relapsed with high risk cytogenetics (sample of r38)
[20] = Relapsed splenic MZL (sample of r15)
[21] = Relapsed splenic MZL (sample of r16)
[22] = Relapsed splenic MZL (sample of r18)
[23] = Relapssd splenic MZL (sample of r17)
[24] = Double expresser transformed from CLL/SLL
[25] = Double hit, replaced from RCHOP, ASCT and BR
[26] = NOS, single agent or combination
[27] = Relapsed Peripheral T-cell lymphoma (sample of r30)
[28] = Relapsed Peripheral T-cell lymphoma (sample of r31)

| SMILES | % viability normalized for respective controls [1, 12] [%] | % viability normalized for respective controls [1, 13] [%] | % viability normalized for respective controls [2, 14] [%] | % viability normalized for respective controls ([2]; Relapsed MCL) [%] | % viability normalized for respective controls [3, 15] [%] | % viability normalized for respective controls [3, 16] [%] | % viability normalized for respective controls [3, 17] [%] | % viability normalized for respective controls [3, 18] [%] | % viability normalized for respective controls [3, 19] [%] | % viability normalized for respective controls ([4]; Relapsed nodal MZL) [%] | % viability normalized for respective controls [4, 20] [%] | % viability normalized for respective controls [4, 21] [%] | % viability normalized for respective controls [4, 22] [%] | % viability normalized for respective controls [4, 23] [%] | % viability normalized for respective controls [5] [%] | % viability normalized for respective controls [6] [%] | % viability normalized for respective controls [7, 24] [%] | % viability normalized for respective controls ([7]; Double expresser) [%] | % viability normalized for respective controls ([7]; Double hit transformed from FL) [%] | % viability normalized for respective controls [7, 25] [%] | also measured |
| --- | --- | --- | --- | --- | --- | --- | --- | --- | --- | --- | --- | --- | --- | --- | --- | --- | --- | --- | --- | --- | --- |
| O=C(/C=C\n1cnc(-c2cc(C(F)(F)F)cc(C(F)(F)F)c2)n1)NNc1cnccn1 [KPT-330, (Z)-3-[3-[3,5-bis (trifluoromethyl)phenyl]-1,2,4-triazol-1-yl]-N′-pyrazin-2-ylprop-2-enehydrazide] | 72 | 99 | 94 | 89 | 55 | 79 | 91 | 93 | 96 | 58 | 55 | 67 | 67 | 70 | 70 | 85 | 68 | 74 | 82 | 81 | % viability normalized for respective controls [7, 26]: 63%; % viability normalized for respective controls [8]: 79%; % viability normalized for respective controls [9, 27]: 73%; % viability normalized for respective controls [9, 28]: 68%; % viability normalized for respective controls [10]: 61%; IC50 ([11]; Homo sapiens, OCI-Ly1, 72 h): 1800 nM |
| C[N+](C)(C)CCO.O=C([O-])c1ccccc1O [CS, choline salicylate] | 78 | 75 | 91 | 68 | 64 | 58 | 90 | 69 | 99 | 65 | 63 | 71 | 65 | 82 | 82 | 79 | 65 | 80 | 71 | 86 | % viability normalized for respective controls [7, 26]: 76%; % viability normalized for respective controls [8]: 88%; % viability normalized for respective controls [9, 27]: 64%; % viability normalized for respective controls [9, 28]: 73%; % viability normalized for respective controls [10]: 72%; % viability normalized for respective controls ([11]; OCI-Ly1 (DLBCL), 48 hours, KPT-330 0.1-1.0 μM, CS 1-3 mM, single agent or combination): 101% |
